Experimental data from patent publication EP0450097B1, “BENZOHETEROCYCLIC COMPOUNDS” (OTSUKA PHARMACEUTICAL CO., LTD., priority 1989, dated 1991).

Assays:
[1] = molecular target: T1, V₁ receptor (Rattus norvegicus, UniProt P30560); assay: V₁ receptor binding assay ([³H]-Arg-vasopressin, rat liver plasma membrane preparations); settings: 37°C for 10 minutes
T1 construct: Using rat liver plasma membrane preparations; from tissue; host or cells: rat liver plasma membranes
Method: Using rat liver plasma membrane preparations prepared according to Ichihara's method [cf: Akira Ichihara, J. Bio. Chem., 258, 9283 (1983)], the plasma membrane (50000dpm, 2x10⁻¹⁰ M) of [³H]-Arg-vasopressin and a test compound (60 µg, 10⁻⁸-10⁻⁴ M) are incubated at 37°C for 10 minutes in 100 mM Tris-HCl buffer (pH: 8.0, 250 µl) containing 5 mM MgCl₂, 1 mM EDTA and 0.1 % BSA. After incubation, the mixture is filtered three times using the glass filter (GF/F) so as to separate the membrane preparation combined with vasopressin and then washed with the buffer (5 ml). This glass filter is taken out and mixed with liquid scintillation cocktail. The amount of [³H]-vasopressin combined with the membrane is measured by liquid scintillation counter and the rate of the inhibitory effect of the test compound is estimated according to the following equation. Rate of the inhibitory effect (%) = 100 -(C1 - B1)/(C0 - B1)X 100 [formula] C¹: The amount of [³H]-vasopressin combined with the membrane in the presence of the test compound (in prescribed amount). C⁰: The amount of [³H]-vasopressin combined with the membrane in the absence of the test compound. B¹: The amount of [³H]-vasopressin combined with the membrane in the presence of the excess amount of vasopressin (10⁻⁶ M).
The results are expressed as IC₅₀ values, which is the concentration of the test compound required to achieve the inhibitory effect in the rate of 50 %.

[2] = molecular target: T2, V₂ receptor (Rattus norvegicus, UniProt Q00788); assay: V₂ receptor binding assay ([³H]-Arg-vasopressin, rat kidney plasma membrane preparations); settings: 4°C for 3 hours
T2 construct: Using rat kidney plasma membrane preparations; from tissue; host or cells: rat kidney plasma membranes
Method in brief: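 IC₅₀ reflects displacement of [³H]-vasopressin bound to rat kidney plasma membrane preparations, with excess vasopressin (10⁻⁶ M) defining nonspecific binding. Membrane-bound label separated by glass-filter (GF/F) filtration and measured by scintillation counting.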

T1 sequence (P30560 whole entry): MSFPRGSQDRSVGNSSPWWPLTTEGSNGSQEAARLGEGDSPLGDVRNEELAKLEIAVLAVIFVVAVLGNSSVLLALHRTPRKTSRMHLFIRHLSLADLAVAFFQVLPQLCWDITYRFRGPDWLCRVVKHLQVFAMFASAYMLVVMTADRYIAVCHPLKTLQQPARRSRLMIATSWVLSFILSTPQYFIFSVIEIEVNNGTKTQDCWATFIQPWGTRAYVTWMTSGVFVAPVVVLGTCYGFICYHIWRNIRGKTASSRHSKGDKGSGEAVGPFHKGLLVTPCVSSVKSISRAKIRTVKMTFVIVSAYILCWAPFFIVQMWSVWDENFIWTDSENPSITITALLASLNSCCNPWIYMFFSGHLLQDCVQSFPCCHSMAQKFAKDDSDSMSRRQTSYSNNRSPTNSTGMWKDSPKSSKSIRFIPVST
T2 sequence (Q00788 whole entry): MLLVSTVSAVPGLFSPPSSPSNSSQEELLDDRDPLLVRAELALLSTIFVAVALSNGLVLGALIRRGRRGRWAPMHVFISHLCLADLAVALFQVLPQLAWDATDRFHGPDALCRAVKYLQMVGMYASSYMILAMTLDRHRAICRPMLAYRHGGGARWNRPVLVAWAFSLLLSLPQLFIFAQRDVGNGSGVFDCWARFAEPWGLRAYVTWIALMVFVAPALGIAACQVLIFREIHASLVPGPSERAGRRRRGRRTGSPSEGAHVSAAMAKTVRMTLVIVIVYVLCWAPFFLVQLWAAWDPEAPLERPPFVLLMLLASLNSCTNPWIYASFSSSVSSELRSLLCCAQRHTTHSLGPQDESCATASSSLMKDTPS

Row | IC50 [1] [nM] | IC50 [2] [nM] | Compound
1 | 180 | 150 | COc1cc(OC)cc(C(=O)Nc2ccc(C(=O)N3CCCCc4ccccc43)cc2)c1 [compound 60]
2 | 98 | 23 | O=C(Nc1ccc(C(=O)N2CCCCc3ccccc32)cc1)c1ccc(Cl)cc1Cl [compound 62]
3 | 140 | 46 | O=C(Nc1ccc(C(=O)N2CCCCc3ccccc32)cc1)c1c(F)cccc1Cl [compound 63]
4 | 69 | 7 | Cc1cccc(C)c1C(=O)Nc1ccc(C(=O)N2CCCCc3ccccc32)cc1 [compound 64]
5 | 340 | 50 | Nc1cccc(C(=O)Nc2ccc(C(=O)N3CCCCc4ccccc43)cc2)c1 [compound 67]
6 | 13 | 190 | CC(C)NCCCCOc1ccccc1C(=O)Nc1ccc(C(=O)N2CCCCc3ccccc32)cc1 [compound 68]
7 | 66 | 120 | O=C(Nc1ccc(C(=O)N2CCCCc3ccccc32)cc1)c1cccc(O)c1 [compound 69]
8 | 41 | 12 | NCCCCOc1ccccc1C(=O)Nc1ccc(C(=O)N2CCCCc3ccccc32)cc1 [compound 70]
9 | 180 | 85 | CCN(CC)CCOc1ccccc1C(=O)Nc1ccc(C(=O)N2CCCCc3ccccc32)cc1 [compound 71]
10 | 120 | 160 | CC(=O)NCCCCOc1ccccc1C(=O)Nc1ccc(C(=O)N2CCCCc3ccccc32)cc1 [compound 72]
11 | 100 | 510 | O=C(Nc1ccc(C(=O)N2CCCCc3ccccc32)cc1)c1ccccc1OCCCCCCN1CCOCC1 [compound 74]
12 | 69 | 300 | CN1CCN(CCCCCCOc2ccccc2C(=O)Nc2ccc(C(=O)N3CCCCc4ccccc43)cc2)CC1 [compound 75]
13 | 42 | 17 | COc1cc(C(=O)N2CCCCc3ccccc32)ccc1NC(=O)C1CCCCC1 [compound 76]
14 | 85 | 90 | COc1cc(C(=O)N2CCCCc3ccccc32)ccc1NC(=O)c1ccccc1 [compound 77]
15 | 100 | 84 | Cc1cc(C(=O)N2CCCCc3ccccc32)ccc1NC(=O)c1ccccc1C [compound 78]
16 | 340 | 21 | CN1CCCN(C(=O)c2ccc(NC(=O)C3CCCCC3)cc2)c2ccccc21 [compound 88]
17 | 380 | 14 | Cc1ccccc1C(=O)Nc1ccc(C(=O)N2CCCN(C)c3ccccc32)cc1 [compound 90]
18 | 11 | 6 | CCN(CC(=O)Nc1ccc(C(=O)N2CCCCc3ccccc32)cc1)c1ccccc1 [compound 114]
19 | 12 | 6 | C=CCN(CC(=O)Nc1ccc(C(=O)N2CCCCc3ccccc32)cc1)c1ccccc1 [compound 115]
20 | 40 | 39 | O=C(CNc1ccccc1Cl)Nc1ccc(C(=O)N2CCCCc3ccccc32)cc1 [compound 116]

Row | IC50 [1] [nM] | IC50 [2] [nM] | Compound
21 | 220 | 240 | CC(=O)OCCCCOc1ccccc1C(=O)Nc1ccc(C(=O)N2CCCCc3ccccc32)cc1 [compound 117]
22 | 49 | 59 | NC(=O)COc1ccccc1C(=O)Nc1ccc(C(=O)N2CCCCc3ccccc32)cc1 [compound 119]
23 | 290 | 280 | O=C(Nc1ccc(C(=O)N2CCCCc3ccccc32)cc1)c1ccccc1OCCCCO [compound 120]
24 | 450 | 180 | CCOC(=O)COc1ccccc1C(=O)Nc1ccc(C(=O)N2CCCCc3ccccc32)cc1 [compound 121]
25 | 150 | 130 | CCN(CC)C(=O)COc1ccccc1C(=O)Nc1ccc(C(=O)N2CCCCc3ccccc32)cc1 [compound 124]
26 | 91 | 280 | CN(CCO)CCOc1ccccc1C(=O)Nc1ccc(C(=O)N2CCCCc3ccccc32)cc1 [compound 125]
27 | 23 | 7 | C#CCN(CC(=O)Nc1ccc(C(=O)N2CCCCc3ccccc32)cc1)c1ccccc1 [compound 130]
28 | 150 | 8 | Cc1ccccc1C(=O)Nc1ccc(C(=O)N2CCCC(O)c3ccccc32)cc1 (stereo not shown) [compound 143]
29 | 280 | 9 | COC1CCCN(C(=O)c2ccc(NC(=O)c3ccccc3C)cc2)c2ccccc21 (stereo not shown) [compound 147]
30 | 140 | 9 | Cc1ccccc1C(=O)Nc1ccc(C(=O)N2CCCC(OCCCCN(C)C)c3ccccc32)cc1 (stereo not shown) [compound 161]
31 | 220 | 9 | Cc1ccccc1C(=O)Nc1ccc(C(=O)N2CCCC(OCC(=O)N(C)C)c3ccccc32)cc1 (stereo not shown) [compound 163]
32 | 150 | 10 | NC(=O)COC1CCCN(C(=O)c2ccc(NC(=O)c3ccccc3Cl)cc2)c2ccccc21 (stereo not shown) [compound 164]
33 | 260 | 23 | Cc1ccccc1C(=O)Nc1ccc(C(=O)N2CCCC(OCCCN3C(=O)c4ccccc4C3=O)c3ccccc32)cc1 (stereo not shown) [compound 172]
34 | 150 | 8 | Cc1ccccc1C(=O)Nc1ccc(C(=O)N2CCCC(OCCCN)c3ccccc32)cc1 (stereo not shown) [compound 173]
35 | 140 | 7 | CC(=O)NCCCOC1CCCN(C(=O)c2ccc(NC(=O)c3ccccc3C)cc2)c2ccccc21 (stereo not shown) [compound 174]
36 | 450 | 29 | Cc1ccccc1C(=O)Nc1ccc(C(=O)N2CCCC(OC(=O)N(C)C)c3ccccc32)cc1 (stereo not shown) [compound 187]
37 | 470 | 39 | CN(C)C1CCCN(C(=O)c2ccc(NC(=O)c3ccccc3C(F)(F)F)cc2)c2ccccc21 (stereo not shown) [compound 188]
38 | 54 | 11 | Cc1ccccc1C(=O)Nc1ccc(C(=O)N2CCSCc3ccccc32)cc1 [compound 192]
39 | 170 | 36 | Cc1ccccc1C(=O)Nc1ccc(C(=O)N2CCC(=O)Cc3ccccc32)cc1 [compound 193]
40 | 170 | 10 | CNC(=O)COC1CCCN(C(=O)c2ccc(NC(=O)c3ccccc3Cl)cc2)c2ccccc21 (stereo not shown) [compound 195]

Row | IC50 [1] [nM] | IC50 [2] [nM] | Compound
41 | 400 | 13 | CNC(=O)OC1CCCN(C(=O)c2ccc(NC(=O)c3ccccc3C)cc2)c2ccccc21 (stereo not shown) [compound 196]
42 | 160 | 45 | O=C(Nc1ccc(C(=O)N2CCC=Cc3ccccc32)cc1)c1ccccc1Cl [compound 207]
43 | 110 | 7 | Cc1ccccc1C(=O)Nc1ccc(C(=O)N2CCCC(C)c3ccccc32)cc1 (stereo not shown) [compound 208]
44 | 74 | 4 | C=C1CCCN(C(=O)c2ccc(NC(=O)c3ccccc3C)cc2)c2ccccc21 [compound 209]
45 | 270 | 58 | Cc1ccccc1C(=O)Nc1ccc(C(=O)N2CCC(O)Cc3ccccc32)cc1 (stereo not shown) [compound 214]
46 | 130 | 6 | Cc1ccccc1C(=O)Nc1ccc(C(=O)N2CCCC(CO)c3ccccc32)cc1 (stereo not shown) [compound 215]
47 | 96 | 10 | CCN(CC(=O)Nc1ccc(C(=O)N2CCCC(O)c3ccccc32)c(Cl)c1)c1ccccc1 (stereo not shown) [compound 222]
48 | 160 | 7 | CC(=O)OCC1CCCN(C(=O)c2ccc(NC(=O)c3ccccc3C)cc2)c2ccccc21 (stereo not shown) [compound 231]
49 | 88 | 6 | Cc1ccccc1C(=O)Nc1ccc(C(=O)N2CCCC(COS(C)(=O)=O)c3ccccc32)cc1 (stereo not shown) [compound 235]
50 | 390 | 20 | COc1cc(NC(=O)c2ccccc2C)ccc1C(=O)N1CCCC(O)c2ccccc21 (stereo not shown) [compound 238]
51 | 230 | 18 | Cc1ccccc1C(=O)Nc1ccc(C(=O)N2CCCC(CN)c3ccccc32)cc1 (stereo not shown) [compound 244]
52 | 190 | 120 | Cc1ccccc1C(=O)Nc1ccc(C(=O)N2CCCC(CN=[N+]=[N-])c3ccccc32)cc1 (stereo not shown) [compound 250]
53 | 360 | 63 | O=C(Nc1ccc(C(=O)N2CCCC(NCc3ccccc3)c3ccccc32)cc1)c1ccccc1Cl (stereo not shown) [compound 252]
54 | 46 | 5 | CC(=O)NCC1CCCN(C(=O)c2ccc(NC(=O)c3ccccc3C)cc2)c2ccccc21 (stereo not shown) [compound 255]
55 | 49 | 4 | Cc1ccccc1C(=O)Nc1ccc(C(=O)N2CCC(C)C(O)c3ccccc32)cc1 (stereo not shown) [compound 256]
56 | 290 | 13 | Cc1ccccc1C(=O)Nc1ccc(C(=O)N2CCCC(N(C)CC(N)=O)c3ccccc32)cc1 (stereo not shown) [compound 266]
57 | 480 | 3 | Cc1ccccc1C(=O)Nc1ccc(C(=O)N2CCCC(CNC=O)c3ccccc32)cc1 (stereo not shown) [compound 269]
58 | 110 | 24 | Cc1ccccc1C(=O)Nc1ccc(C(=O)N2CCCC(NC3CCN(Cc4ccccc4)CC3)c3ccccc32)cc1 (stereo not shown) [compound 274]
59 | 180 | 18 | Cc1ccccc1C(=O)Nc1ccc(C(=O)N2CCCC(OC(=O)CN(C)C)c3ccccc32)cc1 (stereo not shown) [compound 275]
